These results are taken from PMC9530963, “A cathelicidin antimicrobial peptide from Hydrophis cyanocinctus inhibits Zika virus infection by downregulating expression of a viral entry factor” (The Journal of Biological Chemistry, 2022).

In one data set the test system is Vero, A549 or U251 cells. The following applies: 1.25, 2.5, and 5 μM, 48 h, 37 °C, CCK-8.
In data set [1] the test system is ZIKV. In words: ZIKV replication stage, A549 cells (peptide added after infection). Format: cell-based, ZIKV strain PRVABC59. Particulars: 2.5 μM after ZIKV infection, 48 h; NS3 Western blot. The method, then: B–I, Vero (B–G), A549 (H), or U251 (I) cells were incubated with ZIKV (MOI = 1) at 37 °C for 2 h, washed with PBS, and transferred with fresh DMEM containing 2% FBS and Hc-CATH (2.5 μM), AC5 (2.5 μM), LL-37 (2.5 μM), or PBS (solvent of peptide). After culture at 37 °C for 48 h, intracellular ZIKV RNA (B), NS3 protein (C, D, H, and I), E protein level (E, the scale bar represents 50 μm), and extracellular ZIKV titer (F and G) were detected by qPCR, Western blot, immunofluorescence staining, and plaque-forming assay, respectively.
Vero cells were incubated with ZIKV (MOI = 1) at 37 °C for 2 h, washed three times with PBS, and transferred with fresh DMEM containing 2% FBS and Hc-CATH (2.5 μM), AC5 (2.5 μM), LL-37 (2.5 μM), or PBS. After culture at 37 °C for 48 h, intracellular ZIKV RNA, NS3 protein, E protein, and extracellular ZIKV titer were detected by qPCR, WB, IF, and plaque-forming assay, respectively. The effect of Hc-CATH on ZIKV replication stage was further tested in A549 and U251 cells under the same condition, and intracellular ZIKV NS3 protein was detected by WB.
(A western blot detects proteins with antibodies after separation by electrophoresis.)

For data set [2], the system named is ZIKV. The experiment in a line: Prophylactic efficacy against ZIKV infection in mice. The data set is classed as in vivo.
Text: At 4, 8, and 3 days post ZIKV inoculation, C57BL/6J mice, Ifnar1^−/− mice, and pregnant C57BL/6J mice were sacrificed, respectively. Tissues and fetal mice were collected for testing ZIKV RNA by qPCR. ns, not significant, ∗p < 0.05, ∗∗p < 0.01, and ∗∗∗p < 0.001. Hc-CATH, a cathelicidin antimicrobial peptide identified from the sea snake Hydrophis cyanocinctus; PFU, plaque-forming unit; qPCR, quantitative PCR; ZIKV, Zika virus.
C57BL/6J mice, Ifnar1^−/− mice, and pregnant C57BL/6J mice were sacrificed at 4, 8, and 3 days post ZIKV inoculation, respectively. Tissues and fetal mice were collected for testing ZIKV RNA level by qPCR.
For another data set, the system named is AXL. In words: AXL level in U251 cells (Western blot, immunofluorescence). Format: cell-based, Homo sapiens. The following applies: 1.25, 2.5, and 5 μM, 24 h, with and without ZIKV challenge. As to the method: Figure 5 Hc-CATH downregulates AXL in U251 cell.A, schematic diagram of B and C. B, U251 cells were seeded in 24-well plates (5 × 10^4 cells/well) and cultured in DMEM containing 2% FBS. Hc-CATH (1.25, 2.5, and 5 μM) or same volume of PBS (peptide solvent) was added to cells and incubated at 37 °C for 24 h. The level of AXL was tested by Western blot. C, U251 cells were seeded in 8-well cover slip chambers (5 × 10^4 cells/well) and cultured in DMEM containing 2% FBS. Hc-CATH (1.25, 2.5, and 5 μM) or PBS was added to cells and incubated at 37 °C for 24 h. The level of AXL was tested by immunofluorescence staining. The scale bar represents 50 μm. D, schematic diagram of E–G. E–G, U251 cells were seeded in 24-well plates (5 × 10^4 cells/well) and cultured in DMEM containing 2% FBS. Hc-CATH (1.25, 2.5, and 5 μM) or PBS was added to cells and incubated at 37 °C for 2 h. Cells were washed with PBS and incubated with ZIKV (MOI = 1). After incubation at 37 °C for 2 h, cells were washed with PBS and cultured in DMEM containing 2% FBS.
The effect of Hc-CATH on AXL was further confirmed in A549 and U251 cells. A549 or U251 cells were incubated with Hc-CATH (1.25, 2.5, and 5 μM) or PBS at 37 °C for 24 h, and the level of AXL was detected by WB and IF, respectively. Upon ZIKV challenge, A549 or U251 cells were incubated with Hc-CATH (1.25, 2.5, and 5 μM) or PBS at 37 °C for 2 h. […]

Data set [3] deals with ZIKV. The experiment in a line: Binding of Hc-CATH to ZIKV (ELISA). On the set-up: species or system ZIKV strain PRVABC59. Particulars: plates coated with 0.25 μM peptide, 1 × 10^6 PFU ZIKV, absorbance at 450 nm. The method, then: Figure 8 Hc-CATH directly inactivates ZIKV particles by disrupting viral membrane.A, schematic diagram of B–G (Hc-CATH-Vero-pre). B–G, direct inactivation of ZIKV by Hc-CATH. ZIKVs (MOI = 1) were incubated with Hc-CATH (2.5 μM), AC5 (2.5 μM), LL-37 (2.5 μM), or PBS (peptide solvent) at 37 °C for 2 h, and then the ZIKV–PBS mixture and ZIKV–peptide mixture were centrifugated at 100,000g for 70 min. The pellets were washed with PBS and centrifugated at 100,000g for 70 min again. The pellets were resuspended in PBS, added to Vero cells, and incubated for 2 h. Cells were washed with PBS and cultured in fresh DMEM containing 2% FBS. After culture at 37 °C for 48 h, the intracellular ZIKV RNA (B), NS3 protein (C and D), E protein level (E, the scale bar represents 50 μm), and extracellular ZIKV titer (F and G) were tested by qPCR, Western blot, immunofluorescence staining, and plaque-forming assay, respectively. H, binding of Hc-CATH to ZIKV. High-affinity binding plates were coated with 0.25 μM of Hc-CATH, BSA, AC5, or LL-37. Then, 1 × 10^6 PFU of ZIKV was added and incubated. […] Absorbance at 450 nm was measured after reactions were stopped using 0.5 M sulfuric acid. […] After the residual RNase was inactivated, the undigested genomic RNA in the intact ZIKV particles was extracted and quantified by testing the genes of PrM, E, and Cap proteins, respectively. ∗∗p < 0.01 and ∗∗∗p < 0.001. […]
(ELISA stands for enzyme-linked immunosorbent assay.)

Experimental for Vero, A549 or U251 cells: Vero, A549 or U251 cells (1×10^4 cells/well) were seeded
in 96-well plates . Series of two -fold peptide dilutions in DMEM were added to each well to
give final concentrations from 0.78125 to 50 μM. After incubation at 37℃ for 48 h, cell
counting assay kit (CCK -8) was applied to determine the cytotoxicity. ***P < 0.001, ns, not

Turning to “KFFKRLLKSVRRAVKKFRKKPRLIGLSTLL [Hc-CATH, cathelicidin antimicrobial peptide identified from the sea snake Hydrophis cyanocinctus]”, in the data set with Vero, A549 or U251 cells, the “cytotoxicity against mammalian cells” value is reported as “did not have cytotoxicity”. In the data set with ZIKV [1], the “ZIKV infection in A549 cells, peptide added after infection” value is “did not inhibit ZIKV infection”. Moreover, the “anti-ZIKV efficacy in vivo compared with positive peptides” value in the data set with ZIKV [2] (C57BL/6J mice, prophylactic and therapeutic (Figs. 11E and 12E)) is “comparable with or even better than that of AC5 and LL-37”. Moreover, in the data set on ZIKV [2] (i.v. peptide 2 h before i.v. ZIKV 10^6 PFU/mouse, 4 days, tissue ZIKV RNA, qPCR), the “ZIKV replication in C57BL/6J mice, prophylactic” value is “significantly decreased ZIKV replication”. For the same sequence, the “ZIKV replication in Ifnar1−/− mice, prophylactic” value in the data set with ZIKV [2] (i.v. peptide 2 h before i.v. ZIKV 10^6 PFU/mouse, 8 days, tissue ZIKV RNA, qPCR) is on record as “significantly decreased ZIKV replication”. Besides, in the data set on ZIKV [2] (pregnant C57BL/6J mice, i.v. peptide 2 h before i.v. ZIKV 10^6 PFU/mouse, 3 days, qPCR), the “ZIKV replication in fetal placenta and fetal mice, prophylactic” value is on record as “significantly decreased ZIKV replication”. Also, in the data set on AXL, the “level of AXL in U251 cells” value is “effectively decreased the level of AXL”. In addition, the “binding to ZIKV” value in the data set with ZIKV [3] is recorded as “stronger binding affinity with ZIKV as compared with bovine serum albumin”.
